According to patent US20260375094A1, “Disinfectant Compositions” (ARXADA, LLC, priority 2022, published 2026):

How the values were obtained:
Assay type in all cases: cell-based
[1] = test system: Pseudomonas aeruginosa; assay: glass slide carrier spray disinfection test, Pseudomonas aeruginosa; conditions: 75 ppm antimicrobial agent, no polyethertriamine; 10 minutes contact time
Procedure: (§1) In this example, Pseudomonas aeruginosa or Staphylococcus aureus were dried on glass slides and then sprayed with disinfectant compositions prepared according to the present disclosure. The organism load on the slide was controlled between 5 and 6 log 10 (equals to 10^5 to 10^6 organisms). The spray bottle containing the disinfectant was placed 4 inches away from the carrier and five sprays were applied. After 10 minutes contact time, the carriers are aseptically transferred to 20 ml of letheen broth (neutralizer/growth media). These letheen broth tubes with the carriers are then incubated at 37±1 °C for 48 hours. After 48 hours, a cloudy letheen tube indicates growth or failure and a clear tube indicates no growth or pass.
(§2) The polyethertriamine used was JEFFAMINE T403 polyetheramine obtained from Huntsman Corporation of Houston, Texas.
(§3) In the example below, the alkyl dimethyl benzyl ammonium chloride contained a mixture of 50% by weight C14, 10% by weight C16, and 40% by weight C12 dimethyl benzyl ammonium chloride.
(§4) In the table below, PHMB stands for polyhexamethylene biguanide.

[2] = test system: Staphylococcus aureus; assay: glass slide carrier spray disinfection test, Staphylococcus aureus; conditions: 75 ppm antimicrobial agent, no polyethertriamine; 10 minutes contact time
Procedure: as §1, §2, §3, §4

[3] = test system: Pseudomonas aeruginosa (ATCC 15442); assay: EN1276 suspension test, dirty condition, 5 minutes; conditions: for Log Reduction: no polyethertriamine, with 5.00 disodium cocoamphodiproprionate, 15.00 isopropyl alcohol, 5 minutes
Procedure: In particular, varying amounts of para-chloro-metal-xylenol (PCMX) were combined and tested with and without different adjuvants of the present disclosure.
In this example, the same polyethertriamine described in Example No. 1 was used. The disodium cocoamphodiproprionate used was Amphoterge® K-2 obtained from Arxada AG. The methylglycinediacetic acid used was Trilon® M obtained from BASF Corporation.
In tables 9 and 10, antimicrobial efficacy was evaluated according to the EU Standard EN1276 method against Pseudomonas aeruginosa (ATCC 15442) for a contact time of 5 minutes in dirty condition. Test compounds were diluted in hardwater with a total hardness of 375 ppm as CaCo3 pursuant to the Organization for Economic Co-operation and Development (OECD) and used within 2 hours of preparation. The test inoculum was adjusted to the concentration of 1.5-5×10^8 colony forming units (CFU) in Tryptone Sodium Chloride buffer (TSC, 1.0 g tryptone, 8.5 g NaCl, 1 L H2O). For the challenge test, 1 ml of the test inocula was mixed with 1 ml of Bovine Serum Albumin (final concentration 3 g/L) and held for 2 minutes before it was exposed to 8 mL of test compound. The test suspension was then mixed and held for the contact time of 5 minutes at 20±1 °C. At the end of the exposure time, 1 ml of the test mixture was transferred to a tube containing 9 ml neutralizing solution and held for 5 minutes before it was serially diluted and plated onto TSA plates. The plates were incubated at 37 °C for 48 hours before the numbers of CFU per ml in the test suspensions relative to the controls were calculated. Test and control procedures were performed in duplicate and carried out in parallel with the neutralization validation controls, as described in the standard.

[4] = test system: Klebsiella pneumoniae; assay: modified EN 1040 suspension test, Klebsiella pneumoniae; conditions: 1.25 ppm antimicrobial agent, 60 seconds
Source text: (§5) In particular, various antimicrobial agents and mixtures were combined and tested with and without the adjuvant of the present disclosure.
(§6) In this example, the same polyethertriamine described in Example No. 1 was used. In addition, the alkyl dimethyl benzyl ammonium chloride was the same mix as described in Example No. 1. The alkyl dimethyl ammonium chloride mix used in the samples below contained 40% by weight of octyl decyl dimethyl ammonium chloride, 16% by weight dioctyl dimethyl ammonium chloride, and 24% by weight of didecyl dimethyl ammonium chloride.
(§7) The modified EN 1040 suspension test was used to determine the efficacy of the test systems. The testing was performed for a contact time of 60 seconds in comparison to an identical composition not containing the adjuvant but containing the antimicrobial agent at the same concentration. Bacteria were stored at −80 °C using Microbank™ beads (Prolab diagnostics). Cultures were prepared in 250 mL baffled shake flasks with 25 mL of Tryptic Soy Broth (TSB) using one bead. After 18+/−8 hours incubation at 37 °C and 150 rpm, the inocula are prepared for the test.
(§8) The inocula were prepared by diluting the bacteria to 2.5×10^6 CFU/mL in phosphate buffered saline (PBS). Test compounds are prepared in DI water. Three levels of each test compound were prepared by serial two-fold dilution in the same hardwater. For each biological repetition, the test compounds were tested at 3 levels in quadruplicate with one quadruplicate control with no test compound.
The varying compositions were then mixed with the inocula in an 80:20 (test composition: inocula) ratio. After 60 seconds, the test composition/inocula mixture was neutralized by a 10-fold dilution in Letheen broth. […]
(§9) The average log reduction was calculated using the six dilutions.
Various different formulations were tested against Klebsiella pneumoniae and Pseudomonas aeruginosa. […] The average log reduction was recorded in addition to the difference in log reduction between the formulation containing the polyethertriamine and the formulation not containing the polyethertriamine.

[5] = test system: Pseudomonas aeruginosa; assay: modified EN 1040 suspension test, Pseudomonas aeruginosa; conditions: 1.25 ppm antimicrobial agent, 60 seconds
Source text: as §5, §6, §7, §8
The varying compositions were then mixed with the inocula in an 80:20 (test composition: inocula) ratio. After 60 seconds, the test composition/inocula mixture was neutralized by a 10-fold dilution in Letheen broth. After neutralization of the test composition/inocula mixture, five more 10-fold dilutions were made. The six dilutions were incubated at 35 °C for 24 h+/−1 h. Neutralization was verified separately.
as §9
Various different formulations were tested against Klebsiella pneumoniae and Pseudomonas aeruginosa. The antimicrobial concentrations were tested at 5 ppm, 2.5 ppm, and 1.25 ppm. The antimicrobial blends were mixed at the indicated ratios by weight percent. The formulations were tested with and without the polyethertriamine (PEA). The polyethertriamine was added at weight ratios of 20:1, 40:1, 80:1, and 200:1 with respect to the antimicrobial agent(s). The average log reduction was recorded in addition to the difference in log reduction between the formulation containing the polyethertriamine and the formulation not containing the polyethertriamine.

SMILES	# Fails out of 10 [1]	# Fails out of 10 [2]	Log Reduction ([3]; 0.50% para-chloro-meta-xylenol, 1:5 dilution (1000 ppm)) [log]	Log Reduction ([3]; 1.00% para-chloro-meta-xylenol, 1:5 dilution (2000 ppm)) [log]	performance in presence of the adjuvants ([3]; Example No. 3)	Average Log Kill ([4]; 0 ppm PEA) [log]	Delta Log Kill ([4]; 250 ppm PEA vs 0) [log]	Average Log Kill ([4]; 250 ppm PEA) [log]	Average Log Kill ([5]; 0 ppm PEA) [log]	Delta Log Kill ([5]; 100 ppm PEA vs 0) [log]	Average Log Kill ([5]; 100 ppm PEA) [log]	Delta Log Kill ([5]; 250 ppm PEA vs 0) [log]	Average Log Kill ([5]; 250 ppm PEA) [log]
N=C(NCCCCCCNC(=N)NC(=N)Nc1ccc(Cl)cc1)NC(=N)Nc1ccc(Cl)cc1 [Chlorohexidine]	10 out of 10	10 out of 10	–	–	–	–	–	–	–	–	–	–	–
Cc1cc(O)cc(C)c1Cl [Para-chloro-meta-xylenol, 4-chloro-3,5-dimethylphenol]	–	–	0.83	2.56	dramatically improved the performance	–	–	–	–	–	–	–	–
CCCCCCCCCC[N+](C)(C)CCCCCCCCCC.[Cl-] [didecyl dimethyl ammonium chloride]	9 out of 10	1 out of 10	–	–	–	0.46	1.38	1.83	1.58	0.92	2.50	0.29	1.88
